From patent US20180020662A1, “Substituted 1-cycloalkyl-2-oxotetrahydroquinolin-6-ylsulfonamides or salts thereof and use thereof to increase stress tolerance in plants” (BAYER CROPSCIENCE AKTIENGESELLSCHAFT, priority 2015, published 2018)

Molecular target: T1, phosphatase ABI1 via the co-regulator RCAR11/PYR1 (Arabidopsis thaliana, UniProt O49686+P49597)
T1 sequence (O49686 1-191): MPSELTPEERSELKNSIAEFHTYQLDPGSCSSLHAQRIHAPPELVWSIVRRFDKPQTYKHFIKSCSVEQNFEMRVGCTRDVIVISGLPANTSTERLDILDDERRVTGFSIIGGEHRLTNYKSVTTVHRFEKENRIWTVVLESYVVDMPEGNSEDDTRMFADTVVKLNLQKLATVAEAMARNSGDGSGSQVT
T1 sequence (P49597 1-434): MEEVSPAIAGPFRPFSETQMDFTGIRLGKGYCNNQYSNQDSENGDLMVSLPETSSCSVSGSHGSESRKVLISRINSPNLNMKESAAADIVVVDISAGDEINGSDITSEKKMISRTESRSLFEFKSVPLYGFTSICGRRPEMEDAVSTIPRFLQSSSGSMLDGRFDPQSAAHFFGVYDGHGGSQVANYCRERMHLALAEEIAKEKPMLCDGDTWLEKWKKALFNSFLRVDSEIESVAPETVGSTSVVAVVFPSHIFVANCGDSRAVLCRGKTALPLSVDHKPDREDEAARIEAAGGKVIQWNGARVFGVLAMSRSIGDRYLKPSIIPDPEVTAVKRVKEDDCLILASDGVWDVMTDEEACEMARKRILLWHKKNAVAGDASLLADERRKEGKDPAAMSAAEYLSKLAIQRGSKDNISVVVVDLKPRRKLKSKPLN
Test: In vitro assay: inhibition of ABI1 dephosphorylation of 4-methylumbelliferyl phosphate (MUP), fluorescence
Assay type: biochemical
Conditions: concentration of 5 mM of the substance in DMSO and water, 35° C., 20 minutes
Source text: Effects of the phytohormone abscisic acid (ABA) on the behavior of plants under abiotic stress and the mechanism of action of ABA are described in the literature (cf. Abrams et al., WO97/23441, Park et al. Science, 2009, 324, 1068; Grill et al. Science, 2009, 324, 1064; Tanokura et al. Biophysics, 2011, 7, 123; Schroeder et al. Plant J. 2010, 61, 290). Therefore, it is possible with the aid of a suitable in vitro test system to derive a correlation between the action of ABA and the stress response of a plant under abiotic stress. In the event of water deficiency (drought stress), plants form the phytohormone abscisic acid (ABA). This binds, along with a co-regulator (Regulatory Component of ABA-Receptor=RCAR according to Grill et al. Science, 2009, 324, 1064 or PYR/PYL according to Cutler et al. Science, 2009, 324, 1068), to a phosphatase (e.g. ABI1, a type 2C protein phosphatase, also abbreviated to PP2C) and inhibits its activity. As a result, a “downstream” kinase (e.g. SnRK2) is no longer dephosphorylated. This kinase, which is thus active, via phosphorylation of transcription factors (e.g. AREB/ABF, cf. Yoshida et al Plant J. 2010, 61, 672), switches on a genetic protection program to increase drought stress tolerance. The assay described hereinafter utilizes the inhibition of the phosphatase ABI1 via the co-regulator RCAR11/PYR1 aus Arabidopsis thaliana. For the determination of activity, the dephosphorylation of 4-methylumbelliferyl phosphate (MUP) was measured at 460 nm. The in vitro assay was conducted in Greiner 384-well PS microplates F-well, using two controls: a) 0.5% dimethyl sulfoxide (DMSO) and b) 5 μM abscisic acid (ABA). The assay described here was generally conducted with substance concentrations of the appropriate chemical test substances in a concentration range of 0.1 μM to 100 μM in a solution of DMSO and water. The substance solution thus obtained, if necessary, was stirred with esterase from porcine liver (EC 3.1.1.1) at room temperature for 3 h and centrifuged at 4000 rpm for 30 min. A total volume of 45 μl was introduced into each cavity of the microplate, having the following composition: • 1) 5 μl of substance solution, i.e. a) DMSO 5% or b) abscisic acid solution or c) the corresponding example compound of the general formula (I) dissolved in 5% DMSO. • 2) 20 μl of enzyme buffer mix, composed of a) 40% by vol. of enzyme buffer (10 ml contain equal proportions by volume of 500 mM Tris-HCl pH 8, 500 mM NaCl, 3.33 mM MnCl2, 40 mM dithiothreitol (DTT)), b) 4% by vol. of ABI1 dilution (protein stock solution was diluted so as to give, after addition, a final concentration in the assay of 0.15 μg ABI1/well), c) 4% by vol. of RCAR11 dilution (enzyme stock was diluted so as to give, on addition of the dilution to the enzyme buffer mix, a final concentration in the assay of 0.30 μg enzyme/well), d) 5% by vol. of Tween20 (1%), e) 47% by vol. H2O bi-dist. • 3) 20 μl of substrate mix, composed of a) 10% by vol. of 500 mM Tris-HCl pH 8, b) 10% by vol. of 500 mM NaCl, c) 10% by vol. of 3.33 mM MnCl2, d) 5% by vol. of 25 mM MUP, 5% by vol. of Tween20 (1%), 60% by vol. of H2O bi-dist.
Enzyme buffer mix and substrate mix were made up 5 minutes prior to the addition and warmed to a temperature of 35° C. On completion of pipetting of all the solutions and on completion of mixing, the plate was incubated at 35° C. for 20 minutes. Finally, a relative fluorescence measurement was made at 35° C. with a BMG Labtech “POLARstar Optima” microplate reader using a 340/10 nm excitation filter and a 460 nm emission filter. The efficacy of the compounds of the general formula (I) is reported in the table which follows using abscisic acid […] as comparative substance (no. 38) according to the following classification: ++++(inhibition ≧90%), +++(90% >inhibition ≧70%), ++(70% >inhibition ≧50%), +(50% >inhibition ≧30%). […]

ABI1 inhibition	Structure (SMILES)
++++ (inhibition ≧90%)	Cc1ccc(CS(=O)(=O)Nc2ccc3c(c2)CCC(=O)N3C2(C)CC2)cc1 [A1-152]
++++ (inhibition ≧90%)	CC1(N2C(=O)CCc3cc(NS(=O)(=O)Cc4ccc(F)cc4)ccc32)CC1 [A1-158]
++++ (inhibition ≧90%)	Cc1ccc(CS(=O)(=O)Nc2ccc3c(c2)CCC(=O)N3C2(C3CC3)CC2)cc1 [A3-152, N-{1-[1,1′-bi(cyclopropyl)-1-yl]-2-oxo-1,2,3,4-tetrahydroquinolin-6-yl}-1-(4-methylphenyl)methanesulfonamide]
+++ (90% >inhibition ≧70%)	Cc1cccc(CS(=O)(=O)Nc2ccc3c(c2)CCC(=O)N3C2(C3CC3)CC2)c1 [A3-153]
+++ (90% >inhibition ≧70%)	O=C1CCc2cc(NS(=O)(=O)Cc3cccc(Cl)c3)ccc2N1C1(C2CC2)CC1 [A3-166]
++++ (inhibition ≧90%)	CCc1ccc(CS(=O)(=O)Nc2ccc3c(c2)CCC(=O)N3C2(C3CC3)CC2)cc1 [A3-325]
++++ (inhibition ≧90%)	Cc1ccc(CS(=O)(=O)Nc2ccc3c(c2)CCC(=O)N3C2CC2C2CC2)cc1 (stereo not drawn) [A16-152, N-{1-[1,1′-bi(cyclopropyl)-2-yl]-2-oxo-1,2,3,4-tetrahydroquinolin-6-yl}-1-(4-methylphenyl)methanesulfonamide]
+++ (90% >inhibition ≧70%)	O=C1CCc2cc(NS(=O)(=O)Cc3ccc(F)cc3)ccc2N1C1CC1C1CC1 (stereo not drawn) [A16-158]
++ (70% >inhibition ≧50%)	O=C1CCc2cc(NS(=O)(=O)Cc3cc(F)cc(F)c3)ccc2N1C1CC1C1CC1 (stereo not drawn) [A16-164]
++++ (inhibition ≧90%)	O=C1CCc2cc(NS(=O)(=O)Cc3ccc(Cl)cc3)ccc2N1C1CC1C1CC1 (stereo not drawn) [A16-165]
+++ (90% >inhibition ≧70%)	CC(C)(C)c1ccc(CS(=O)(=O)Nc2ccc3c(c2)CCC(=O)N3C2CC2C2CC2)cc1 (stereo not drawn) [A16-332]
++++ (inhibition ≧90%)	Cc1ccc(CS(=O)(=O)Nc2ccc3c(c2)CCC(=O)N3C2CC(C)C2)cc1 (stereo not drawn) [A26-152]
++++ (inhibition ≧90%)	CC1CC(N2C(=O)CCc3cc(NS(=O)(=O)Cc4cc(F)cc(F)c4)ccc32)C1 (stereo not drawn) [A26-164]
++++ (inhibition ≧90%)	CC1CC(N2C(=O)CCc3cc(NS(=O)(=O)Cc4ccc(Cl)cc4)ccc32)C1 (stereo not drawn) [A26-165, 1-(4-Chlorophenyl)-N-[1-(3-methylcyclobutyl)-2-oxo-1,2,3,4-tetrahydroquinolin-6-yl]methanesulfonamide]
++++ (inhibition ≧90%)	CC1CC(N2C(=O)CCc3cc(NS(=O)(=O)Cc4ccc([N+](=O)[O-])cc4)ccc32)C1 (stereo not drawn) [A26-175]
++++ (inhibition ≧90%)	CC1CC(N2C(=O)CCc3cc(NS(=O)(=O)Cc4cccc(C#N)c4)ccc32)C1 (stereo not drawn) [A26-182]
++++ (inhibition ≧90%)	CC1CC(N2C(=O)CCc3cc(NS(=O)(=O)Cc4ccc(C(C)(C)C)cc4)ccc32)C1 (stereo not drawn) [A26-332]
++ (70% >inhibition ≧50%)	Cc1ccc(S(=O)(=O)Nc2ccc3c(c2)CCC(=O)N3C23CC(C2)C3)cc1 [A30-50]
++++ (inhibition ≧90%)	Cc1ccc(CS(=O)(=O)Nc2ccc3c(c2)CCC(=O)N3C23CC(C2)C3)cc1 [A30-152]
+++ (90% >inhibition ≧70%)	O=C1CCc2cc(NS(=O)(=O)Cc3cccc(F)c3)ccc2N1C12CC(C1)C2 [A30-159]
++ (70% >inhibition ≧50%)	O=C1CCc2cc(NS(=O)(=O)Cc3cccc(Cl)c3)ccc2N1C12CC(C1)C2 [A30-166]
++++ (inhibition ≧90%)	O=C1CCc2cc(NS(=O)(=O)Cc3ccc(C(F)(F)F)cc3)ccc2N1C12CC(C1)C2 [A30-178, N-[1-(Bicyclo[1.1.1]pent-1-yl)-2-oxo-1,2,3,4-tetrahydroquinolin-6-yl]-1-[4-(trifluoromethyl)phenyl]methanesulfonamide]
++++ (inhibition ≧90%)	N#Cc1ccc(CS(=O)(=O)Nc2ccc3c(c2)CCC(=O)N3C23CC(C2)C3)cc1 [A30-181]
+++ (90% >inhibition ≧70%)	O=C1CCc2cc(NS(=O)(=O)Cc3ccc(Cl)cc3)ccc2N1C1CC2(CCC2)C1 [A33-165]
